Reference: patent publication US20090286878A1, “POLYOL DERIVED ANTI-MICROBIAL AGENTS AND COMPOSITIONS” (priority 2008, published 2009)

Key:
Experiment in all cases: Fungicidal activity, modified EN12175 test
Assay type in all cases: cell-based
[1] = test system: Aspergillus niger; conditions: 1% concentration; for A. niger log reduction 30 min: 30 min contact; for A. niger log reduction 30 min / A. niger log reduction 1 h / A. niger log reduction 24 h: vs water control; for A. niger log reduction 1 h: 1 h contact; for A. niger log reduction 24 h: 24 h contact; for A. niger cfu/mL (residual spore cell count): inoculum 2.60E+08 cfu/mL, room temperature
Protocol: (§1) Fungicidal activity is tested according to trivial modifications of the standard EN12175 test method. […] Penicillium funiculosum, Aspergillus niger and Aureobasidium pullulans are tested as important mold strains. The resulting cell count reduction is compared to a water control. […]

[2] = test system: Aureobasidium pullulans; conditions: 1% concentration; for A. pull. log reduction 30 min: 30 min contact; for A. pull. log reduction 30 min / A. pull. log reduction 1 h / A. pull. log reduction 24 h: vs water control; for A. pull. log reduction 1 h: 1 h contact; for A. pull. log reduction 24 h: 24 h contact; for A. pull. cfu/mL (residual spore cell count): inoculum 4.0E+06 cfu/mL, room temperature
Protocol: as §1

[3] = test system: Penicillium funiculosum; conditions: 1% concentration; for P. funic. log reduction 30 min: 30 min contact; for P. funic. log reduction 30 min / P. funic. log reduction 1 h / P. funic. log reduction 24 h: vs water control; for P. funic. log reduction 1 h: 1 h contact; for P. funic. log reduction 24 h: 24 h contact; for P. funic. cfu/mL (residual spore cell count): inoculum 3.60E+07 cfu/mL, room temperature
Protocol: as §1

Row | SMILES | A. niger log reduction 30 min [1] [log] | A. niger log reduction 1 h [1] [log] | A. niger log reduction 24 h [1] [log] | A. niger cfu/mL (residual spore cell count) [1] [cfu/mL] | A. pull. log reduction 30 min [2] [log] | A. pull. log reduction 1 h [2] [log] | A. pull. log reduction 24 h [2] [log] | A. pull. cfu/mL (residual spore cell count) [2] [cfu/mL] | P. funic. log reduction 30 min [3] [log] | P. funic. log reduction 1 h [3] [log] | P. funic. log reduction 24 h [3] [log] | P. funic. cfu/mL (residual spore cell count) [3] [cfu/mL]
1 | CCCCCCCCCCCCNCCCCCC(=O)OCC(CC)(COC(=O)CCCCCNCCCCCCCCCCCC)COC(=O)CCCCCNCCCCCCCCCCCC [Ex 16] | >4 | >4 | >4 | <10 | >4 | >4 | >4 | <10 | >4 | >4 | >4 | <10
2 | CCCCCCCCNCCC(=O)OCC(CC)(COC(=O)CCNCCCCCCCC)COC(=O)CNCCCCCCCC [Ex 18] | >4 | >4 | >4 | <10 | >4 | >4 | >4 | <10 | >4 | >4 | >4 | <10
